The test relates to PLA2 (A. piscivorus piscivorus) induced paw edema. Kind of test: in vivo PLA2 murine paw edema assay. The arrangement: species or system mouse (male CD-1). Conditions: for ED50: Mus musculus, ip. As to the method: The ability of the compounds of the invention to inhibit paw edema induced by the exogenous administration of PLA2 is measured in the in vivo PLA2 murine paw edema assay.
Non-fasted, male CD-1 mice (8 weeks old; 31-36 grams) are placed in plastic boxes in groups of six. The right hind paw volume is measured using mercury plethysmography (zero time). Compounds are dosed orally (0.5 mL of 0.5% Tween-80) 1 or 3 hours prior to PLA2 injection or intravenously (0.2 mL in 0.3% dimethylsulfoxide/saline) 3 minutes prior to PLA2 injection. A solution of purified PLA2, from the diamond back cotton mouth snake (A. piscivorus piscivorus) is prepared in saline at a concentration of 6 μg/mL. Fifty (50) μL (0.3 μg) of this PLA2 solution is injected subcutaneously into the right hind paw with a plastic 1 mL plastic syringe (27 gauge, 1" needle). Paw volume of the injected paw is measured again at 10 minutes, 30 minutes and 60 minutes after PLA2 injection. Animals are euthanized with CO2 at the completion of the study.
The paw edema is calculated by subtracting the zero time volume from the volume recorded at each time period. Mean paw edema for each treatment group is then calculated and expressed as (μL±S.E.). Drug effects are expressed as a percent change from control (vehicle) values. Statistical significance is determined by a oneway analysis of variance with LSD comparison to control (p<0.05). ED50 's are determined using repression analysis.

For `CC(C)(C)c1ccc(OCCCC#CC(=O)C(F)(F)F)cc1` [Example 4, 7-[4-(1,1-Dimethylethyl)phenoxy]-1,1,1-trifluoro-3-heptyn-2-one], the “% Change in Edema 10 min” value (30 mg/kg i.p.) is reported as -45%.

On to `O=C(C#CCCCn1c2ccccc2c2ccccc21)C(F)(F)F` [Example 2, 7-(9H-Carbazol-9-yl)-1,1,1-trifluoro-3-heptyn-2-one], for which the ED50 (as a rule, the midpoint of the dose-response relation) is 1 mg/kg.

For the molecule `O=C(C#CCCCOc1ccc(Cl)cc1)C(F)(F)F` [Example 1, 7-(4-Chlorophenoxy)-1,1,1-trifluoro-3-heptyn-2-one], the ED50 came out at 3 mg/kg. Moreover, for the setting “10 mg/kg i.v.”, the “% Change in Edema 10 min” value is given as -64%, the “% Change in Edema 30 min” value is -34% and the “% Change in Edema 60 min” value was -39%. Also, under “100 mg/kg p.o.”, the “% Change in Edema 10 min” value is listed as -26%, the “% Change in Edema 30 min” value is listed as -37% and the “% Change in Edema 60 min” value is reported as -23%.

With Luffarrellolide [reference compound], the “ED50 at +10 min.” value (p.o., standard drugs) was “Not Active”.

As for `COc1cccc2c1cc([N+](=O)[O-])c1c(C(=O)O)cc3c(c12)OCO3` [Aristolochic Acid, reference compound], the median effective dose (ED50) at +10 min. (p.o., standard drugs) is recorded as “Not Active”.

In turn, `O=C(C#CCCCOc1ccc(F)cc1)C(F)(F)F` [Example 3, 1,1,1-Trifluoro-7-(4-fluorophenoxy)-3-heptyn-2-one] returned an ED50 of 30 mg/kg.

As for `C[C@@H]1C[C@H]2[C@@H]3CCC4=CC(=O)C=C[C@]4(C)[C@@]3(F)[C@@H](O)C[C@]2(C)[C@@]1(O)C(=O)CO` [Dexamethasone, reference compound], where the note is “p.o. 3 hr, standard drug”, the “ED50 at +10 min.” value amounted to 10 mg/kg.

Consider `COc1ccc2cc([C@H](C)C(=O)O)ccc2c1` [Naproxen, reference compound], for which, for the setting “p.o., standard drugs”, the “ED50 at +10 min.” value turned out to be 18 mg/kg.

In turn, `O=C(C#CCCCOc1ccc(Cl)cc1)C(F)(F)CCc1ccccc1` [Example 7, 9-(4-Chlorophenoxy)-3,3-difluoro-1-phenyl-5-nonyn-4-one] returned an ED50 of 3 mg/kg.
